As a reminder, the logP is the decadic logarithm of the partition coefficient of the neutral form, usually between octanol and water. A lower logP goes with lower lipophilicity. As to `[O-][n+]1cc(Cl)nc(-c2ccc(Cl)cc2)c1-c1ccc(Cl)cc1`, the logP is 3.66.
`c1ccc(-c2nccnc2-c2ccccc2)cc1` came in with a logP of 3.19.
`Cc1c[n+]([O-])c(C)c(Cl)n1` showed a logP of 0.44.
`COc1ccc(-c2ncc(C)nc2-c2ccc(OC)cc2)cc1`: the logP is 3.66.
On to `COc1ccc(-c2nccnc2-c2ccc(OC)cc2)cc1`, for which the logP is 3.42.
For `Cc1ncc(-c2ccccc2)nc1-c1ccccc1`, the logP worked out at 4.29.
Consider `Cc1cnc(-c2ccccc2)c(-c2ccccc2)n1`, for which the log partition coefficient (logP) was 3.52.
Take `COc1ccc(-c2ncc(C#N)nc2-c2ccc(OC)cc2)cc1`: the logP was 3.7.
The same measure for `Clc1cnc(-c2ccccc2)c(-c2ccccc2)n1`: 4.05.
Take `COc1ccc(-c2ncc(OC)nc2-c2ccc(OC)cc2)cc1`: the logP was found to be 4.47.
The result for `COC(=O)c1cnc(-c2ccc(OC)cc2)c(-c2ccc(OC)cc2)n1` reads 3.41.
Take `CCOc1cnc(-c2ccccc2)c(-c2ccccc2)n1`: the logP turned out to be 4.73.
`CCc1ncc(-c2ccccc2)nc1-c1ccccc1` gave a logP of 4.66.
`COc1ccccc1Cc1cnc(-c2ccccc2)c(-c2ccccc2)n1` registered a logP of 5.18.
As for `COc1ccc(-c2ncc(Cl)nc2-c2ccc(OC)cc2)cc1`, the logP amounted to 4.3.
The result for `CCc1nc(CC)c(-c2ccccc2)nc1-c1ccccc1` reads 4.83.
`Cc1cnc(-c2ccc(F)cc2)c(-c2ccc(F)cc2)n1` came in with a lipophilicity (logP) of 3.75.
`Cc1cnc(-c2ccc(C#N)cc2)c(-c2ccc(C#N)cc2)n1` registered a logP of 2.52.
Take `Cc1nc(-c2ccccc2)cnc1-c1ccccc1`: the lipophilicity (logP) was 4.28.
`Cc1nc(Cl)c(C)[n+]([O-])c1Cl` came in with a log partition coefficient (logP) of 1.08.
Molecule `[O-][n+]1ccnc(-c2ccc(Br)cc2)c1-c1ccc(Br)cc1` had a log partition coefficient (logP) of 3.41.
Consider `CCOc1cnc(-c2ccc(OC)cc2)c(-c2ccc(OC)cc2)n1`, for which the log partition coefficient (logP) stood at 5.
`Cc1ccc(-c2nccnc2-c2ccc(C)cc2)cc1` registered a logP of 4.1.
`c1ccc(-c2cnccn2)cc1` yielded a logP of 2.07.
In turn, `Cc1ncc(C)[n+]([O-])c1Cl` came in with a logP of 0.19.
The same measure for `COc1cnc(-c2ccccc2)c(-c2ccccc2)n1`: 4.21; for `COc1ccc(-c2cnccn2)cc1`: 2.24; for `CCc1cnc(-c2ccc(OC)cc2)c(-c2ccc(OC)cc2)n1`: 4.22.
Turning to `Cc1nc(Cl)c(C)nc1Cl`, the log partition coefficient (logP) was found to be 2.4.
The same measure for `COc1ccc(-c2nc(C)c(C)nc2-c2ccc(OC)cc2)cc1`: 4.1.
In turn, `CC(C)c1cnc(-c2ccccc2)c(-c2ccccc2)n1` yielded a log partition coefficient (logP) of 4.71.
On to `COc1cccc(Cc2cnc(-c3ccccc3)c(-c3ccccc3)n2)c1`, for which the logP came out at 5.2.

For the origin of these results see the OPERA property sets (Mansouri et al. 2018).
